Source: US7084239B1, “Cancer peptides of NY-ESO-1/CAG-3” (The United States of America as represented by the …, priority 1997, dated 2006)

Legend:
[1] = test system: CTL clone 2; assay: Chromium release cytolysis of peptide-pulsed target cells by CTL clone 2; type: cell-based, human; details: peptide titration, 4-h chromium release, E:T ratio of 20:1 (FIG. 7B)
Description: FIGS. 7A–7C. An alternative open reading frame of the NY-ESO-1 gene and antigenic peptides recognized by CTL. FIG. 7A. Identification of antigenic peptides from the ORF2. Thirty peptides were synthesized based on all potential ORFs and screened. Representative data are shown here. Seven peptides derived from ORF2 (see FIG. 3A) were pulsed on HLA-A31 positive 1510EBV B cells and tested for T cell recognition based on GM-CSF release ([…], SEQ ID NO: 123; […], SEQ ID NO: 124; […], SEQ ID NO: 125; […], SEQ ID NO: 46; […], SEQ ID NO: 47; […], SEQ ID NO: 126; and […], SEQ ID NO: 127). 1510 EBV alone was used as a negative control. FIG. 7B. 1510EBV B cells were labeled with chromium for 2 h. The ESORF2-10-18 peptide was then pulsed on the chromium-labeled […] (solid square) and HLA-A31-negative 1102EBV (open circle) at different concentrations. 1510EBV pulsed with ESO10-53, which was recognized by CTL clone 5, was used for the specificity control (solid triangle). After peptide incubation and three washes, cytolysis of target cells by CTL-clone 2 was determined in a 4-h chromium release assay at an E:T ratio of 20:1. FIG. 7C. Several tumor lines and fresh breast tumors were tested for recognition by CTL clone 2 to determine whether the ORF2 is translated in different tumors. 1510EBV B cells pulsed with […] (SEQ ID NO: 25) (ESO10-53), […] (SEQ ID NO: 47) (ORF2-10-18), or alone were included to evaluate the reactivity and specificity of CTL clone 2 and 5. […]
Cytolytic assay was done as previously described (Kawakami, Y et al., 1994, Proc. Natl. Acad. Sci. USA 91:6458–62). […] The cells were washed again, counted, and then mixed with TIL586 or CTL clone 5 at the indicated ratio of effector: targets (E:T). Chromium release was measured after 4 h incubation. […] Percentage of specific lysis was determined from the equation (A−B)/(C−B)×100 where A is lysis of 586EBV B cells by TIL586 or clone 5 in the presence of a peptide, B is spontaneous release from 586EBV B cells in presence of the same peptide but in the absence of effector cells, and C is the maximum chromium release. […]

[2] = test system: CTL clone 2; assay: T cell recognition (GM-CSF release) of peptide-pulsed EBV B cells by CTL clone 2; type: cell-based, human; details: peptide pulsed onto 1510EBV or 586EBV B cells
Description: FIGS. 7A–7C. An alternative open reading frame of the NY-ESO-1 gene and antigenic peptides recognized by CTL. FIG. 7A. Identification of antigenic peptides from the ORF2. Thirty peptides were synthesized based on all potential ORFs and screened. Representative data are shown here. Seven peptides derived from ORF2 (see FIG. 3A) were pulsed on HLA-A31 positive 1510EBV B cells and tested for T cell recognition based on GM-CSF release ([…], SEQ ID NO: 123; […], SEQ ID NO: 124; […], SEQ ID NO: 125; […], SEQ ID NO: 46; […], SEQ ID NO: 47; […], SEQ ID NO: 126; and […], SEQ ID NO: 127). 1510 EBV alone was used as a negative control. FIG. 7B. 1510EBV B cells were labeled with chromium for 2 h. The ESORF2-10-18 peptide was then pulsed on the chromium-labeled […] (solid square) and HLA-A31-negative 1102EBV (open circle) at different concentrations. 1510EBV pulsed with ESO10-53, which was recognized by CTL clone 5, was used for the specificity control (solid triangle). After peptide incubation and three washes, cytolysis of target cells by CTL-clone 2 was determined in a 4-h chromium release assay at an E:T ratio of 20:1. FIG. 7C. Several tumor lines and fresh breast tumors were tested for recognition by CTL clone 2 to determine whether the ORF2 is translated in different tumors. 1510EBV B cells pulsed with […] (SEQ ID NO: 25) (ESO10-53), […] (SEQ ID NO: 47) (ORF2-10-18), or alone were included to evaluate the reactivity and specificity of CTL clone 2 and 5. Expression of HLA-A31 on the tumor cells is indicated.
DNA transfection and GM-CSF assay were done as previously described (Wang, R. F., P. F. Robbins, Y. Kawakami, X. Q. Kang, and S. A. Rosenberg, 1995, J. Exp. Med. 181:799–804). Briefly, […] of DNA carrying a different fragment and 50 ng of the HLA-A31 DNA were mixed with 2 μl of lipofectamine in 100 μl of serum-free DMEM for 15–45 min. The DNA/lipofectamine mixture was then added to the COS-7 (5×10^4) cells and incubated overnight. The following day, cells were washed twice with DMEM medium. TIL586, CTL clone 5 or CTL clone 10 were added at a concentration of 5×10^4 cells/well in AIM-V medium containing 120 IU/ml of IL-2. After 18–24 h incubation, 100 μl of supernatant was collected and GM-CSF was measured in a standard ELISA assay (R+D Systems, Minneapolis, Minn.). […]
CTL clone 5 and TIL1244 were used for the specificity controls. […] To test the hypothesis that CTL may recognize a peptide from a gene product translated from an alternative open reading frame of the same gene, synthetic peptides were made with HLA-A31 Binding motif on the basis of amino acid sequence predicted from the second open reading frames (ORF2) (FIG. 3A). […]

In the case of “ASGPGGGAPR (listed as Homo sapiens) [ESO10-53]”, the “Lysis of peptide-pulsed 1510EBV by CTL clone 2” value [1] is reported as “failed to lyse”, the “Recognition by CTL clone 2, in words” value [2] is reported as “did not recognize” and the “Recognition by CTL clone 2, in words” value ([2]; listed as ESO 10-53) is reported as “failed to recognize”.
